Measured values taken from patent US20080274987A1, “Novel alpha glucosidase activator, pulicarside 1” (HEJ Research Institute, priority 2006, published 2008).
Like-named read-outs stand apart in the source and are kept apart here.

Key:
[1] = molecular target: α-glucosidase (E.C.3.2.1.20); experiment: α-Glucosidase enzyme inhibition assay (PNP-G substrate, spectrophotometric); format: biochemical, Saccharomyces species
Procedure: (§1) α-Glucosidase (E.C.3.2.1.20) enzyme inhibition assay was performed according to the slightly modified method of Matsui et al. α-glucosidase (E.C.3.2.1.20) from Saccharomyces species, purchased from Wako Pure Chemical Industries Ltd. (Wako 076-02841). The enzyme inhibition was measured spectrophotometrically at pH 6.9 and at 37° C. using 0.7 mM p nitrophenyl-α-D-glucopyranoside (PNP-G) as a substrate and 500 m units/mL enzyme, in 50 mM sodium phosphate buffer containing 100 mM NaCl. […] The increment in absorption at 400 nm, due to the hydrolysis of PNP-G by α-glucosidase, was monitored continuously on microplate spectrophotometer (Spectra Max Molecular Devices, USA).
[T. Matsui, C. Yoshimoto, K. Osajima, T. Oki, and Y. Osajima. Biosci. Biotech. Biochem., 1996, 60, 2019].

[2] = system: α-glucosidase; experiment: Rate of α-glucosidase enzyme reaction as a function of incubation time and concentration of Compound 1; format: biochemical, Saccharomyces species
Procedure: as §1
Several unique observations were made during the studies conducted on Compound 1 activity. For example, it was observed that the enzyme generally looses its activity during the operational period. We have a set of experiment to see how the enzyme lost its activity with almost all activity gone within one hour. (Table 2).
As a result we conclude that the activity of Compound 1 is concentration dependent. The mechanism postulated here includes enhancement of stability of the enzyme to react with the substrate, which is not observed in negative control in the absence of this compound 1. From the structures it is clearly evidenced that the methylene-dioxy ring and as well as the sugar molecule is responsible for the enzyme activation. […] So the COO— group is playing a crucial role for the inhibitory effect on the enzyme and the gugar molecule and methylene-dioxy ring is responsible for the activation of the enzyme.

[3] = against α-glucosidase, pH 6.9, 37° C., 0.7 mM PNP-G, read-out: IC50 ± SEM
[4] = unit inferred, read-out: IC50 (inhibitory effect on the enzyme)

| IC50 ± SEM ([1]; against α-glucosidase, pH 6.9, 37° C., 0.7 mM PNP-G) | Rate of enzyme reaction (μM of alpha-glucose from the p-nitrophenyl at 400 nm) ([2]; 0.05 mM Compound 1, incubation 4 min) | Rate of enzyme reaction (μM of alpha-glucose from the p-nitrophenyl at 400 nm) ([2]; 0.05 mM Compound 1, incubation 24 min) | Rate of enzyme reaction (μM of alpha-glucose from the p-nitrophenyl at 400 nm) ([2]; 0.05 mM Compound 1, incubation 45 min) | Rate of enzyme reaction (μM of alpha-glucose from the p-nitrophenyl at 400 nm) ([2]; 0.05 mM Compound 1, incubation 66 min) | Rate of enzyme reaction (μM of alpha-glucose from the p-nitrophenyl at 400 nm) ([2]; 0.10 mM Compound 1, incubation 4 min) | Rate of enzyme reaction (μM of alpha-glucose from the p-nitrophenyl at 400 nm) ([2]; 0.10 mM Compound 1, incubation 24 min) | Rate of enzyme reaction (μM of alpha-glucose from the p-nitrophenyl at 400 nm) ([2]; 0.10 mM Compound 1, incubation 45 min) | Rate of enzyme reaction (μM of alpha-glucose from the p-nitrophenyl at 400 nm) ([2]; 0.10 mM Compound 1, incubation 66 min) | Rate of enzyme reaction (μM of alpha-glucose from the p-nitrophenyl at 400 nm) ([2]; 0.20 mM Compound 1, incubation 4 min) | Rate of enzyme reaction (μM of alpha-glucose from the p-nitrophenyl at 400 nm) ([2]; 0.20 mM Compound 1, incubation 24 min) | Rate of enzyme reaction (μM of alpha-glucose from the p-nitrophenyl at 400 nm) ([2]; 0.20 mM Compound 1, incubation 45 min) | Rate of enzyme reaction (μM of alpha-glucose from the p-nitrophenyl at 400 nm) ([2]; 0.20 mM Compound 1, incubation 66 min) | Rate of enzyme reaction (μM of alpha-glucose from the p-nitrophenyl at 400 nm) ([2]; 0.40 mM Compound 1, incubation 4 min) | Rate of enzyme reaction (μM of alpha-glucose from the p-nitrophenyl at 400 nm) ([2]; 0.40 mM Compound 1, incubation 24 min) | Rate of enzyme reaction (μM of alpha-glucose from the p-nitrophenyl at 400 nm) ([2]; 0.40 mM Compound 1, incubation 45 min) | Rate of enzyme reaction (μM of alpha-glucose from the p-nitrophenyl at 400 nm) ([2]; 0.40 mM Compound 1, incubation 66 min) | Effect on α-glucosidase enzymatic activity as compared to the negative control ([2]; at all the concentrations and time intervals) | IC50 [1, 3] | IC50 [1, 4] | Structure (SMILES) |
| --- | --- | --- | --- | --- | --- | --- | --- | --- | --- | --- | --- | --- | --- | --- | --- | --- | --- | --- | --- | --- |
| Enhancer | 18.61 µM | 8.7 µM | 3.85 µM | 1.45 µM | 19.94 µM | 10.38 µM | 4.64 µM | 1.62 µM | 20.89 µM | 18.27 µM | 13.11 µM | 10.13 µM | 21.15 µM | 19.68 µM | 14.8 µM | 15.01 µM | enhanced the enzymatic activity | – | – | CC1(C)OCC2(C[C@@]34CC[C@H]5[C@@](C)(CCC[C@@]5(C)C(=O)O[C@@H]5O[C@H](CO)[C@@H](O)[C@H](O)[C@H]5O)[C@@H]3CC[C@@H]2C4)O1 (single isomer, unassigned; ent-16) [Pulicarside (1), β-D-glucopyranosyl ent-16,17-acetonyl-(−)-kauran-19-oate] |
| – | – | – | – | – | – | – | – | – | – | – | – | – | – | – | – | – | – | 62.2 µM | 62.2 ± 0.008 µM | C[C@@]12CCC[C@@](C)(C(=O)O)[C@H]1CC[C@@]13C[C@@H](CC[C@H]12)[C@@](O)(CO)C3 (single isomer, unassigned; ent-16) [ent-16,17-dihydroxy-(−)-kauran-19-oic acid] |
| – | – | – | – | – | – | – | – | – | – | – | – | – | – | – | – | – | – | 407 ± 20 µM | 407 ± 20 µM | C[C@@]12CCC[C@@](C)(C(=O)O[C@@H]3O[C@H](CO)[C@@H](O)[C@H](O)[C@H]3O)[C@H]1CC[C@@]13C[C@@H](CC[C@H]12)[C@@](O)(CO)C3 [Paniculoside IV (2), paniculoside IV] |
